Assay results as given in the NIST ThermoML archive (doi:10.1016/j.jct.2019.105883).

Test: xn = mol fraction of the nth substance listed
Settings: 101.3 kPa, Liquid; for viscosity: Concentric cylinders viscometry; for mass density: Vibrating tube method

CCN.Cl [ethylammonium chloride] + CC(N)=O
Settings | mass density, 313.2 K [kg/m3] | mass density, 323.2 K [kg/m3] | mass density, 333.2 K [kg/m3] | mass density, 343.2 K [kg/m3] | mass density, 353.2 K [kg/m3] | viscosity, 313.2 K [mPa·s] | viscosity, 323.2 K [mPa·s] | viscosity, 333.2 K [mPa·s] | viscosity, 343.2 K [mPa·s] | viscosity, 353.2 K [mPa·s]
x1 = 0.252 | 1041 | 1034.3 | 1027.6 | 1020.9 | 1014.2 | 32.6 | 27.8 | 21.9 | 18.4 | 15.2
x1 = 0.337 | 1042.8 | 1036.4 | 1030 | 1023.7 | 1017.3 | 58 | 39.2 | 29.1 | 23.3 | 18.6
x1 = 0.5 | 1043.8 | 1037.9 | 1032 | 1026.2 | 1020.4 | 71.5 | 48.4 | 35.8 | 28.2 | 23.5
